# Assay results from ChEMBL document CHEMBL1138210, “Discovery of potent, orally-active, and muscle-selective androgen receptor modulators based on an N-aryl-hydroxybicyclohydantoin scaffold” (J Med Chem, 2006).
# What was measured:
# Rattus norvegicus [1] = test: Stimulation of prostate growth in sc dosed castrated Sprague-Dawley rat; format: functional; settings: Prostate gland
# Rattus norvegicus [2] = test: Stimulation of levator ani muscle growth in sc dosed castrated Sprague-Dawley rat; format: functional
# Rattus norvegicus [3] = test: Inhibition of LH secretion in sc dosed castrated Sprague-Dawley rat; format: functional, organism-based
# Rattus norvegicus [4] = test: Selectivity for stimulation of levetor ani muscle over suppression of LH secretion in sc dosed castrated Sprague-Dawley rat; format: functional, Muscle tissue
# Rattus norvegicus [5] = test: Selectivity for stimulation of levator ani muscle over prostate in sc dosed castrated Sprague-Dawley rat; format: functional
# Androgen receptor [6] = target: T1, Androgen receptor (Homo sapiens, UniProt P10275); test: biochemical
# T1 sequence (P10275 whole entry): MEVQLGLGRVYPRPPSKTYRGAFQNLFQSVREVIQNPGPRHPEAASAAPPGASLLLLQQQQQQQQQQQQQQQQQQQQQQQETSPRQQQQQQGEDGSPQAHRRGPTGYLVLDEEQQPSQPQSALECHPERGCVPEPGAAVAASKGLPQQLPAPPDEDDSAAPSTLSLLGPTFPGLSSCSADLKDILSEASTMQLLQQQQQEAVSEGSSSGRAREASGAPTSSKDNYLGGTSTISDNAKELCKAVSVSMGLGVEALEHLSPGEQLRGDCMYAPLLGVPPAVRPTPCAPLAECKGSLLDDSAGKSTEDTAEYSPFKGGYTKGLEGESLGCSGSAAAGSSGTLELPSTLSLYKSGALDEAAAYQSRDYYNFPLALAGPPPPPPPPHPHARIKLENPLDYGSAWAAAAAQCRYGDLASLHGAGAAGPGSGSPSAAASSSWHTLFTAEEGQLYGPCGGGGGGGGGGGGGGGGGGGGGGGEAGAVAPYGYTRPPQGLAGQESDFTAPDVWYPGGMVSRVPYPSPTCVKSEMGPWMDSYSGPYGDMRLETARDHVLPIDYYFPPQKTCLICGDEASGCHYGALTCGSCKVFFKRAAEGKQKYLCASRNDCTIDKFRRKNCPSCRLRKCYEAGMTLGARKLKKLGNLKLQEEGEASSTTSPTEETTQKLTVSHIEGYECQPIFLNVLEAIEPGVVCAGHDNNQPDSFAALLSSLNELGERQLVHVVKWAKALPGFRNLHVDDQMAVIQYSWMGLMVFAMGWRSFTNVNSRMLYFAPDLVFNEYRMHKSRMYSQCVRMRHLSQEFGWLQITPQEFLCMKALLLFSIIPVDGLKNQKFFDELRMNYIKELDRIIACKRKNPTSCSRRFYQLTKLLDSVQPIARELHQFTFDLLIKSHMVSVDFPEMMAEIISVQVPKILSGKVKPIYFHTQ
# Description: Displacement of [3H]DHT from human AR in MDA453 cells
# Androgen receptor [7] = target: T2, Androgen receptor (Rattus norvegicus, UniProt P15207)
# T2 sequence (P15207 whole entry): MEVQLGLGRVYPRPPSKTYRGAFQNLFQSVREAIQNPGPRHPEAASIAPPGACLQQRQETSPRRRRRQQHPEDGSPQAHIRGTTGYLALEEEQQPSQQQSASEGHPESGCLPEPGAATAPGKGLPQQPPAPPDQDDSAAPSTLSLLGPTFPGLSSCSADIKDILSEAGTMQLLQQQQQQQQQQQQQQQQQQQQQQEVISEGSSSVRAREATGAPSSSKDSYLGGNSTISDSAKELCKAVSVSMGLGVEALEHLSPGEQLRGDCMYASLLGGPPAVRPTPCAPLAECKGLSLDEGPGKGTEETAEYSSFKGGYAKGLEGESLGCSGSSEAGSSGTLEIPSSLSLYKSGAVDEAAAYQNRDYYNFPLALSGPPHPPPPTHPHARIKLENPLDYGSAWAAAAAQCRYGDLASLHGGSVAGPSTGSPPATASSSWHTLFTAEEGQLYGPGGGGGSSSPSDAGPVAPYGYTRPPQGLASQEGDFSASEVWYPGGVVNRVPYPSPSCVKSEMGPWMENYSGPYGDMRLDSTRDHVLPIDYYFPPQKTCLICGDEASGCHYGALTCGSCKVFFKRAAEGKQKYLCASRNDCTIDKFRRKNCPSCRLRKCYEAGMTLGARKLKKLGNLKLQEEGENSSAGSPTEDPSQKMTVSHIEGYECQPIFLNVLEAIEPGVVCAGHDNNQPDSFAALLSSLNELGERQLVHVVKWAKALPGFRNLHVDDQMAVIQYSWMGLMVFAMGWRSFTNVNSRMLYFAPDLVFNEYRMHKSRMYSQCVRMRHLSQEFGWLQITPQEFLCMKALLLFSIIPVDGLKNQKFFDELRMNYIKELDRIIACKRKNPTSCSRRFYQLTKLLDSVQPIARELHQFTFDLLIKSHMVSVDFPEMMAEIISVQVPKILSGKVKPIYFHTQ
# Description: Agonist activity at rat AR transfected in mouse C2C12 cells by luciferase reporter transactivation assay
# Androgen receptor [8] = target: T2, Androgen receptor; test: Antagonist activity against rat AR transfected in mouse C2C12 cells by luciferase reporter transactivation assay relative to DHT; format: functional, cell-based
# Rattus norvegicus [9] = test: Inhibition of LH secretion in orally dosed castrated Sprague-Dawley rat; format: functional; settings: po
# Rattus norvegicus [10] = test: Stimulation of levator ani muscle growth in orally dosed castrated Sprague-Dawley rat; format: functional; settings: po
# Rattus norvegicus [11] = test: Stimulation of prostate growth in orally dosed castrated Sprague-Dawley rat; format: functional; settings: Prostate gland, po
SMILES,Ki (Androgen receptor [6]),EC50 (Androgen receptor [7]),other results
CCC(=O)O[C@H]1CC[C@H]2[C@@H]3CCC4=CC(=O)CC[C@]4(C)[C@H]3CC[C@]12C [TESTOSTERONE PROPIONATE],,,ED50 (Rattus norvegicus [1]): 0.42 mg/kg; ED50 (Rattus norvegicus [2]): 0.21 mg/kg; EC50 (Rattus norvegicus [3]): 0.26 mg/kg; Ratio ED50 (Rattus norvegicus [4]): 1.2; Ratio ED50 (Rattus norvegicus [5]): 2
O=C1C2C(O)CCN2C(=O)N1c1ccc([N+](=O)[O-])c2ccccc12 (racemic),3.5 nM,4.4 nM,
O=C1[C@H]2C[C@@H](O)CN2C(=O)N1c1ccc([N+](=O)[O-])c2ccccc12,1.5 nM,320 nM,
N#Cc1ccc(N2C(=O)[C@H]3[C@@H]4CC[C@@H](C4)N3C2=O)c2ccccc12,24 nM,> 1000 nM,IC50 (Androgen receptor [8]): 260 nM
O=C1[C@H]2[C@@H]3CC[C@@H](C3)N2C(=O)N1c1ccc([N+](=O)[O-])c2ccccc12,1 nM,385 nM,
O=C1C2CCCN2C(=O)N1c1ccc([N+](=O)[O-])c2ccccc12 (centres undefined),1.7 nM,270 nM,
O=C1[C@@H]2[C@H](O)CCN2C(=O)N1c1ccc([N+](=O)[O-])c2ccccc12,2.1 nM,1.5 nM,
O=C1[C@H]2C[C@H](O)CN2C(=O)N1c1ccc([N+](=O)[O-])c2ccccc12,4.3 nM,265 nM,
N#Cc1ccc(N2C(=O)[C@@H]3[C@H](O)CCN3C2=O)c2ccccc12,,2.3 nM,ED50 (Rattus norvegicus [9]): 60 mg/kg; ED50 (Rattus norvegicus [10]): 2 mg/kg; ED50 (Rattus norvegicus [11]): > 100 mg/kg
"O=C1[C@@H]2[C@H](O)CCN2C(=O)N1c1ccc([N+](=O)[O-])c2ccccc12 (single isomer, unassigned)",1.5 nM,281 nM,
"N#Cc1ccc(N2C(=O)[C@@H]3[C@H](O)CCN3C2=O)c2ccccc12 (single isomer, unassigned)",,1300 nM,IC50 (Androgen receptor [8]): 60 nM
N#Cc1ccc(N2C(=O)C3C(O)CCN3C2=O)c2ccccc12 (racemic),,6.3 nM,
